US20090054414A1, “Rufinamide for the Treatment of Post-Traumatic Stress Disorder” (SYNOSIA THERAPEUTICS, priority 2007, published 2009)

Legend:
“intruder” rat = assay: social exploration test in rats; type: in vivo; conditions: vs vehicle
From the text: There remains a paucity of data investigating the anxiolytic potential of this rufinamide. Therefore the aim of the present study was to test the effect of rufinamide (FIG. 1, chemical structure of rufinamide) with regard to a possible facilitation of social behavior (anxiolytic-like effect) using the social exploration test in rats as a paradigm. The basis of this test is that when an adult “resident” rat is kept in social isolation for two weeks, its natural tendency to establish territorial defensive reactions is increased. […] Male adult Sprague Dawley rats (Ra238, OFA/IC strain, Iffa Credo, France) (“residents”) weighing 350-400 g and young Lister Hooded rats (li/ho, Harlan, The Netherlands) (“intruders”) weighing 100-120 g were used. “Intruders” were housed in pairs and the “residents” were individually housed for two weeks before the test in plastic cages (Macrolon, 42×26×15 cm). All animals lived in a room lit from 6 a.m. until 6 p.m. and had always free access to standard food and water. […]
Pairs consisting of one “intruder” rat and one “resident” rat were assigned at random to one of the experimental or the control groups. […] The duration of active approach behaviors of the “intruder” rat (sniffing, anogenital exploration, nosing, grooming, licking, playing) towards the “resident” was manually registered and cumulatively recorded over a period of 5 minutes. […]

male OF-1 mice = assay: half-enclosed platform (HEP) test; type: in vivo, mouse; conditions: 0.32/1/3.2 and 10 mg/kg p.o., 1 hr before testing
From the text: Rufinamide and carbamazepine were compared in the half-enclosed platform (HEP) test. The test determines how drugs affect the exploratory behaviour of a mouse placed upon a novel, half-enclosed platform and gives information as to whether a drug is a stimulant, depressant or disinhibitory as with, for example the benzodiazepines which increase exploration of the platform. It is also useful for determining duration of action and dose-findings studies. The HEP is a further development of the simple elevated platform used by Kaesermann to assess anxiolytic properties of drugs (Ref. Käsermann H. P. (1986) Psychopharmacol. 89:31-37). In this study carbamazepine and rufinamide were tested in the same dose ranges i.e. 0.32/1/3.2 and 10 mg/kg p.o. of each were given to male OF-1 mice 1 hr before testing.
The ethogram used consists of 9 elements of exploratory behaviour two of which involve static postures i.e. immobility and stretched attend posture, the latter being an ambivalent element indicative of approach-avoidance conflict. These elements are immediately spontaneous and are not induced by either training or punishment procedures. Upright postures which are posturally demanding are useful to detect muscle relaxation e.g. rearing (FIG. 10).

[1] = test system: Male Rj: Wistar (Han) rats; assay: Vogel Conflict Test in the rat; type: in vivo; conditions: for number of shocks received (punished drinking), change vs vehicle control: 60 minutes before the test
Experimental: Rufinamide was dispersed in 0.5% methylcellulose (MC) in distilled water. Vehicle was dispersed in 0.5% MC in distilled water. Clobazam was dispersed in 0.5% MC in distilled water. Methylcellulose (Sigma), batch n° 62K0144, white powder. Distilled water (Laboratoire Aguettant, sterile water for injectable preparation). All substances were stored in a dry, dark, controlled access area and maintained at a controlled ambient temperature (+18° C.). The vehicle suspensions were stored at +4° C.
The vehicle, test substance and reference substance were administered in a volume of 5 ml/kg body weight.
Male Rj: Wistar (Han) rats, 171-205 g body weight range were used. They were supplied by Elevage Janvier, 53940 Le Genest-Saint-Isle, France.
Animals were delivered to the laboratory at least 5 days before the experiment, during which time they were acclimatized to the laboratory conditions. They were housed in groups of 5 in macrolon cages (41×25×14 cm) on wood litter (Litalabo—SPPS, 95100 Argenteuil, France) with free access to food (Code 113-SAFE, 91360 Epinay-sur-Orge, France) and water until
Results in grouped data tables are presented as means followed by a ± sign and the standard error of the mean (s.e.m.) on the basis of 15 animals per group and as percent change from control. The statistical tests used are indicated with the method. All statistical calculations were performed using commercial software (Microsoft Excel®, GB Stat version 6.5), and verified test by test according to Porsolt & Partners Pharmacology's standardized internal procedures. All differences were considered statistically significant when the null hypothesis could be rejected at the risk α=0.05 or less.
Rats were deprived of water for 48 hours and were then placed individually into a transparent Plexiglas enclosure (15×32×34 cm) with a floor consisting of stainless steel bars (0.4 cm) spaced 1 cm apart. The back wall of the enclosure was made of opaque Plexiglass thereby concealing the observer from the experimental animal. In the centre of the opposite wall, 5 cm above the floor, a metal water spout protruded into the cage and was connected to one pole of a shock generator (Apelex: Type 011346). The other pole of the shock generator was connected to the metal grid floor.
The rat was left to explore until it found the water spout. Then, every time it drank, it received a slight electric shock (1.7 mA, 1 sec.) 2 seconds after it started lapping. The number of shocks received (punished drinkings) was counted during a 3 minute period.
15 rats were studied per group. The test was performed blind.
rufinamide was evaluated at 25, 50, 100 and 200 mg/kg, administered p.o. 60 minutes before the test, and compared with a vehicle control group.
Clobazam (64 mg/kg), administered under the same experimental conditions, was used as reference substance.
Data were analyzed by comparing treated groups with vehicle control using unpaired Student's t tests.

## NC(=O)c1cn(Cc2c(F)cccc2F)nn1 [rufinamide, 1-(2,6-difluorobenzyl)-1H-1,2,3-triazole-4-carboxamide]
“intruder” rat; rufinamide 0.3 mg/kg p.o., 1 hour after application
  time spent in social contact: did not induce any significant change
“intruder” rat; rufinamide 1, 3, 10, 30 and 100 mg/kg p.o., tested 1 hour after application, 5 min observation
  duration of social contacts of an intruder toward a resident rat: significantly increased
Male OF-1 mice
  changes in durations of exploratory and stationary elements: followed suit but rarely attained statistical significance
  duration of head raising in the open half: increased
  duration of inactivity (sta) in the enclosed half: shortened
  frequencies of stationary elements (Sta: sitting still, inactivity): decreased in a significant manner
Male OF-1 mice; dose-related
  exploratory elements stretched attend posture (sap), head raising (hu) and forward locomotion (go), frequency: significantly increased
[1]; 25 mg/kg p.o., 3 minute period, 15 rats
  number of shocks received (punished drinking), change vs vehicle control: +31%
[1]; 50 mg/kg p.o., p<0.05
  number of shocks received (punished drinking), change vs vehicle control: +40%
[1]; 100 mg/kg p.o.
  number of shocks received (punished drinking), change vs vehicle control: +55%
[1]; 200 mg/kg p.o.
  number of shocks received (punished drinking), change vs vehicle control: +83%
[1]; p.o.
  dose-range of anxiolytic-like activity: 25 to 200 mg/kg
[1]; p.o., p<0.05
  dose from which the increase in shocks received is significant: ≥ 50 mg/kg
